Results published in patent publication US11180504B2 (ORCHID PHARMA LTD., priority 2016, dated 2021).
≈ marks a conversion by molar mass, not a printed value.

Experiments:
[1] = test system: carbapenemase producing K. pneumoniae; experiment: MIC by broth micro-dilution (CLSI), carbapenemase producing K. pneumoniae; assay type: cell-based, Klebsiella pneumoniae; conditions: Klebsiella pneumoniae, ATCCBAA1705, KPC-2 K. pneumoniae ATCC BAA-1705; read-out: MIC
[2] = test system: carbapenem sensitive Escherichia coli; experiment: MIC by broth micro-dilution (CLSI), carbapenem sensitive E. coli; assay type: cell-based; conditions: Escherichia coli, ATCC25922, ESBL −ve E. coli ATCC25922; read-out: MIC
[3] = test system: extended spectrum β lactamase (ESBL) SHV18 producing Klebsiella pneumoniae; experiment: MIC by broth micro-dilution (CLSI), ESBL SHV18 producing K. pneumoniae; assay type: cell-based; conditions: Klebsiella pneumoniae, ATCC700603, 22 h, ESBL +ve (SHV-18) K. pneumoniae ATCC700603; read-out: MIC
[4] = test system: methicillin-sensitive Staphylococcus aureus; experiment: MIC by broth micro-dilution (CLSI), methicillin-sensitive S. aureus; assay type: cell-based; conditions: Staphylococcus aureus, ATCC 29213 / MSSA, MSSA S. aureus ATCC29213; read-out: MIC
[5] = test system: carbapenem sensitive Pseudomonas aeruginosa; experiment: MIC by broth micro-dilution (CLSI), carbapenem sensitive P. aeruginosa; assay type: cell-based; conditions: Pseudomonas aeruginosa, ATCC27853, Meropenem susceptible P. aeruginosa ATCC27853; read-out: MIC

MIC [1]	MIC [2]	MIC [3]	MIC [4]	MIC [5]	Structure (SMILES)
16 µg/mL (≈ 31 µM)	2 µg/mL (≈ 3.87 µM)	8 µg/mL (≈ 15.5 µM)	8 µg/mL (≈ 15.5 µM)	16 µg/mL (≈ 31 µM)	C[C@@H](NC(=O)C(F)F)[C@H]1C(=O)N2C(C(=O)O)=C(S[C@@H]3CN[C@H](C(=O)N4C[C@H](N)[C@@H](N)C4)C3)[C@H](C)[C@H]12 [Example 194]
4 µg/mL (≈ 7.36 µM)	0.5 µg/mL (≈ 0.92 µM)	1 µg/mL (≈ 1.84 µM)	2 µg/mL (≈ 3.68 µM)	8 µg/mL (≈ 14.7 µM)	C[C@@H](NC(=O)C(F)F)[C@H]1C(=O)N2C(C(=O)O)=C(S[C@@H]3CN[C@H](C(=O)N4CC[C@H](NC(=N)N)C4)C3)[C@H](C)[C@H]12 [Example 195]
8 µg/mL (≈ 13.3 µM)	1 µg/mL (≈ 1.66 µM)	4 µg/mL (≈ 6.66 µM)	2 µg/mL (≈ 3.33 µM)	32 µg/mL (≈ 53.3 µM)	C[C@@H](NC(=O)C(F)F)[C@H]1C(=O)N2C(C(=O)O)=C(S[C@@H]3CN[C@H](C(=O)N4CC[C@H](NC(=O)CNC(=N)N)C4)C3)[C@H](C)[C@H]12 [Example 196]
16 µg/mL (≈ 30.7 µM)	4 µg/mL (≈ 7.68 µM)	16 µg/mL (≈ 30.7 µM)	16 µg/mL (≈ 30.7 µM)	32 µg/mL (≈ 61.5 µM)	C[C@@H](NC(=O)CNC1CC1)[C@H]1C(=O)N2C(C(=O)O)=C(S[C@@H]3CN[C@H](C(=O)N4CC[C@@H](N)C4)C3)[C@H](C)[C@H]12 [Example 197]
4 µg/mL (≈ 7.71 µM)	0.25 µg/mL (≈ 0.482 µM)	1 µg/mL (≈ 1.93 µM)	2 µg/mL (≈ 3.86 µM)	32 µg/mL (≈ 61.7 µM)	C[C@@H](NC(=O)C(F)F)[C@H]1C(=O)N2C(C(=O)O)=C(S[C@@H]3CN[C@H](C(=O)N4C[C@H](O)[C@@H](O)C4)C3)[C@H](C)[C@H]12 [Example 198]
2 µg/mL (≈ 3.83 µM)	1 µg/mL (≈ 1.92 µM)	4 µg/mL (≈ 7.67 µM)	32 µg/mL (≈ 61.3 µM)	4 µg/mL (≈ 7.67 µM)	CNCC(=O)N[C@H](C)[C@H]1C(=O)N2C(C(=O)O)=C(S[C@@H]3CN[C@H](C(=O)N4CC[C@H](NC=N)C4)C3)[C@H](C)[C@H]12 [Example 199]
4 µg/mL (≈ 7.85 µM)	2 µg/mL (≈ 3.92 µM)	8 µg/mL (≈ 15.7 µM)	128 µg/mL (≈ 251 µM)	4 µg/mL (≈ 7.85 µM)	CNCC(=O)N[C@H](C)[C@H]1C(=O)N2C(C(=O)O)=C(S[C@@H]3CN[C@H](C(=O)N4C[C@H](N)[C@@H](N)C4)C3)[C@H](C)[C@H]12 [Example 200]
64 µg/mL (≈ 123 µM)	2 µg/mL (≈ 3.85 µM)	16 µg/mL (≈ 30.8 µM)	16 µg/mL (≈ 30.8 µM)	16 µg/mL (≈ 30.8 µM)	C[C@@H](NS(C)(=O)=O)[C@H]1C(=O)N2C(C(=O)O)=C(S[C@@H]3CN[C@H](C(=O)N(CCN)CCO)C3)[C@H](C)[C@H]12 [Example 201]
16 µg/mL (≈ 31.2 µM)	4 µg/mL (≈ 7.8 µM)	64 µg/mL (≈ 125 µM)	64 µg/mL (≈ 125 µM)	8 µg/mL (≈ 15.6 µM)	CNCC(=O)N[C@H](C)[C@H]1C(=O)N2C(C(=O)O)=C(S[C@@H]3CN[C@H](C(=O)N(CCN)CCO)C3)[C@H](C)[C@H]12 [Example 202]
4 µg/mL (≈ 6.89 µM)	0.5 µg/mL (≈ 0.861 µM)	1 µg/mL (≈ 1.72 µM)	16 µg/mL (≈ 27.6 µM)	128 µg/mL (≈ 220 µM)	C[C@@H](NS(C)(=O)=O)[C@H]1C(=O)N2C(C(=O)O)=C(S[C@@H]3CN[C@H](C(=O)N4CC[C@@H](NS(N)(=O)=O)C4)C3)[C@H](C)[C@H]12 [Example 203]
> 128 µg/mL	8 µg/mL (≈ 14.4 µM)	> 128 µg/mL	32 µg/mL (≈ 57.6 µM)	> 128 µg/mL	C[C@@H](NS(=O)(=O)C(F)(F)F)[C@H]1C(=O)N2C(C(=O)O)=C(S[C@@H]3CN[C@H](C(=O)N4CC[C@@H](N)C4)C3)[C@H](C)[C@H]12 [Example 204]
4 µg/mL (≈ 7.68 µM)	1 µg/mL (≈ 1.92 µM)	2 µg/mL (≈ 3.84 µM)	32 µg/mL (≈ 61.5 µM)	8 µg/mL (≈ 15.4 µM)	C[C@@H](NC(=O)[C@@H]1CCCN1)[C@H]1C(=O)N2C(C(=O)O)=C(S[C@@H]3CN[C@H](C(=O)N4CC[C@@H](N)C4)C3)[C@H](C)[C@H]12 [Example 205]
4 µg/mL (≈ 7.68 µM)	4 µg/mL (≈ 7.68 µM)	4 µg/mL (≈ 7.68 µM)	64 µg/mL (≈ 123 µM)	4 µg/mL (≈ 7.68 µM)	C[C@@H](NC(=O)[C@H]1CCCN1)[C@H]1C(=O)N2C(C(=O)O)=C(S[C@@H]3CN[C@H](C(=O)N4CC[C@@H](N)C4)C3)[C@H](C)[C@H]12 [Example 206]
